Experimental data: patent publication US11000515B2, “Compounds that interact with the Ras superfamily for the treatment of cancers, inflammatory diseases, rasopathies, and fibrotic disease” (Shy Therapeutics LLC, priority 2017, dated 2021)
Read-outs that look alike come from different tables or passages of the source.

Columns and labels:
KRas G12C mutant = KRas G12C mutant (Homo sapiens (Human), UniProt P01116, G12C); test: Ras GTP binding domain inhibition assay (labeled GTP)
Procedure: (§1) Buffer-I: • 50 mM Tris, pH 7.5 • 150 mM NaCl (optional) • 1 mM MgCl2 • 1 mM DTT. • KRas G12D mutant protein was expressed as a His-tagged protein. Purified His-KRas G12D protein was diluted in buffer-I to a final concentration of 3-10 μg/ml. • 200 μl of the diluted His-KRas G12D protein was added to a nickel coated 96 well plate and incubated overnight at 4° C. • The next day, wells were washed 3× in 200 μl of Buffer-I. • Then 200 μl of Buffer-I were added to each well in the presence of 1% DMSO. • Tested compounds were added to the protein-coated wells at a concentration of 20 μM, and incubated for 3 hours at room temperature. While performing IC50 measurements a serial dilution of all tested concentrations was prepared.
(§2) Then 22 μl of Cy3-GTP or Cy5-GTP was added to each well. The labeled GTP was incubated for 45 min. at room temperature. • Following GTP incubation, wells were washed 3× in Buffer-I, and 200 μl of Buffer-I were added to each well. • Following washes, the amount of bound labeled-GTP was measured with an Eppendorf AF2200 plate reader.
(§3) By substituting KRas G12D mutant protein with KRas G12C mutant, KRas wild type, KRas Q61H mutant, KRas G12D/Q61H double mutant or KRas G12C/Q61H double mutant under the assay conditions described above, KRas G12C mutant KRas wild type, KRas Q61H mutant, KRas G12D/Q61H double mutant and KRas G12C/Q61H double mutant inhibition, respectively, were each determined.

KRas G12D mutant protein = KRas G12D mutant protein (Homo sapiens (Human), UniProt P01116, G12D); test: as above
Procedure: The following method was developed as specific assay for KRas G12D mutant protein.
as §1, §2

[1] = biological target: KRas G12C/Q61H double mutant (Homo sapiens (Human), UniProt P01116, G12C/Q61H); test: as above
Procedure: as §1, §2, §3

[2] = biological target: KRas G12D/Q61H double mutant (Homo sapiens (Human), UniProt P01116, G12D/Q61H); test: as above
Procedure: as §1, §2, §3

KRas Q61H mutant = KRas Q61H mutant (Homo sapiens (Human), UniProt P01116, Q61H); test: as above
Procedure: as §1, §2, §3

KRas wild type = KRas wild type (Homo sapiens (Human), UniProt P01116); test: as above
Procedure: as §1, §2, §3

[3] = system: TNFα production in RAW 264.7 macrophage cell line; test: Mouse TNF alpha quantification assay (LPS-stimulated RAW 264.7, ELISA); format: cell-based; details: RAW264.7, LPS-stimulated RAW 264.7 macrophage cell line, read-out: TNF-α % Inhibition at 30 μM
[4] = system: IL6 production in RAW 264.7 macrophage cell line; test: Mouse IL6 quantification assay (LPS-stimulated RAW 264.7, ELISA); format: cell-based; details: RAW264.7, LPS-stimulated RAW 264.7 macrophage cell line, read-out: IL-6 % Inhibition at 30 μM
[5] = compound at 20 μM, read-out: % Inhibition at 20 μM, KRas G12D Q61H
[6] = 20 μM compound, read-out: % Inhibition at 20 μM, KRas G12D Q61H

Sequence of KRas G12D/Q61H double mutant (P01116-2 other isoform, or with tags, fused parts or gaps G12D/Q61H): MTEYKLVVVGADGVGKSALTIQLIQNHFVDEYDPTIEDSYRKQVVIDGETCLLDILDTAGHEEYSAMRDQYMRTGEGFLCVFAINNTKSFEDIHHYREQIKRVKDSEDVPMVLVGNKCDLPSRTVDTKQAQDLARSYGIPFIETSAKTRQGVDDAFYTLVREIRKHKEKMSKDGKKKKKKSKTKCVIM
Sequence of KRas G12D mutant protein (P01116-2 other isoform, or with tags, fused parts or gaps G12D): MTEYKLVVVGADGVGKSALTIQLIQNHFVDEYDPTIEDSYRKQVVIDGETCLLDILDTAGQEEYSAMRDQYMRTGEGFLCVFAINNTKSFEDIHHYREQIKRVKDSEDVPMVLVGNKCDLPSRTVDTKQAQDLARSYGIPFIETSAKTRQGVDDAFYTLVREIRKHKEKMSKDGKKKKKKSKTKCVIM
Sequence of KRas wild type (P01116-2 other isoform, or with tags, fused parts or gaps): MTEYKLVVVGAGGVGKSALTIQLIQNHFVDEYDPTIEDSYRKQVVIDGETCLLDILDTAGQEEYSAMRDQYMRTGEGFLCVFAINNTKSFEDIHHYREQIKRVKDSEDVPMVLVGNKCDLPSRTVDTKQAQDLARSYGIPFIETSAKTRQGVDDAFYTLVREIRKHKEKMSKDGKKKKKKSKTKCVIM
Sequence of KRas G12C/Q61H double mutant (P01116-2 other isoform, or with tags, fused parts or gaps G12C/Q61H): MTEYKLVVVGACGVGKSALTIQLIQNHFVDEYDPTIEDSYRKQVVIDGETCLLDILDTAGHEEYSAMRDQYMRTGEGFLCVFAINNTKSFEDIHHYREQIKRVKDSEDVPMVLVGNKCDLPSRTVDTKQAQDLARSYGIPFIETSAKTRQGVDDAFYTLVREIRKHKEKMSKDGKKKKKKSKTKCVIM
Sequence of KRas Q61H mutant (P01116-2 other isoform, or with tags, fused parts or gaps Q61H): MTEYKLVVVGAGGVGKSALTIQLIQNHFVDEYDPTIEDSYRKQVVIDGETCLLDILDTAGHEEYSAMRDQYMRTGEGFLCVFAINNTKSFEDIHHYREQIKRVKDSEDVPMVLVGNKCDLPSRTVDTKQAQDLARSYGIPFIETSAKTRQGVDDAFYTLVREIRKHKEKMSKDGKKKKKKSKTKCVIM
Sequence of KRas G12C mutant (P01116-2 other isoform, or with tags, fused parts or gaps G12C): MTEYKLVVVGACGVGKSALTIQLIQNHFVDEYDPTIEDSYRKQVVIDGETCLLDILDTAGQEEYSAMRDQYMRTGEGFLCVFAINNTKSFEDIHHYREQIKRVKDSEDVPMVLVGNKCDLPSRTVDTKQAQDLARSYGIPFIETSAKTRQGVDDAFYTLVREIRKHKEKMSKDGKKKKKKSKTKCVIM

In the case of Oc1nc(-c2ccccn2)nc2c(-c3ccccc3)csc12, the inhibition at 20 µM (KRas G12C mutant; compound at 20 μM) is reported as 1 to 25%.
Work on CN(C)COc1ccc(-c2csc3c(O)nc(-c4ccccn4)nc23)cn1 yielded an inhibition at 20 µM (KRas G12D mutant protein; compound at 20 μM) of 51 to 75%, an inhibition at 20 µM (KRas G12C mutant; compound at 20 μM) of 51 to 75% and an inhibition at 20 µM ([1]; compound at 20 μM) of 51 to 75%. The inhibition at 20 µM [2, 5] was 51 to 75%, the inhibition at 20 µM (KRas Q61H mutant; compound at 20 μM) was 51 to 75% and the inhibition at 20 µM (KRas wild type; compound at 20 μM) was 51 to 75%.
COc1ccc(CCNC(=O)c2cc(S(=O)(=O)N3CCCCCC3)ccc2OC)cc1OC was tested, and the inhibition at 20 µM [2, 5] was 25 to 50%.
With CCOC(=O)c1sc(N(C2CC2)S(=O)(=O)c2cc(F)ccc2F)nc1C the inhibition at 20 µM [2, 5] was 25 to 50%.
In the case of Cc1sc2nc(-c3cnccn3)[nH]c(=O)c2c1-c1ccccc1, the inhibition at 20 µM [2, 5] is reported as 25 to 50%.
N#Cc1ccc(C2CCCN2c2ccco2)cc1C(F)(F)F (stereo not shown) was tested, and the inhibition at 20 µM [2, 5] was 1 to 25%.
Cc1ccc(OCc2nnc(SCC3CCCOC3)o2)cc1 (stereo not shown) showed an inhibition at 20 µM [2, 5] of 1 to 25%.
CC(NC(=O)c1csc(-c2ccccc2)n1)c1ccccn1 (stereo not shown) was tested, and the inhibition at 20 µM [2, 6] was 1 to 25%.
O=C(NCC(F)(F)F)c1ccc(CN(Cc2cc(Cl)cc3c2OCOC3)C2CC2)cc1 showed an inhibition at 20 µM [2, 6] of 25 to 50%.
Work on CCOc1cc(CN(C(=O)CCc2nc(-c3ccsc3)no2)C2CC2)ccc1OC(F)F yielded an inhibition at 20 µM [2, 6] of 25 to 50%.
In the case of COCc1ccc(C2CCCN2c2ccc(C#N)c(C(F)(F)F)c2)o1 (stereo not shown), the inhibition at 20 µM [2, 6] is reported as 25 to 50%.
CC(C)c1cnc(CN2CC(C)N(Cc3ncc(C(C)C)o3)c3ccccc32)o1 (stereo not shown) was tested, and the inhibition at 20 µM [2, 6] was 25 to 50%.
In the case of COCCN(Cc1ccccc1)CC(O)OCC(c1ccc(OC)cc1)c1ccc(OC)cc1 (stereo not shown), the inhibition at 20 µM [2, 6] is reported as 1 to 25%.
Work on Cc1cc(OC(C)COc2ccc(Oc3ccccc3)cc2)ncc1C(F)(F)F (stereo not shown) yielded an inhibition at 20 µM [2, 6] of 51 to 75%.
COc1cccc(-c2nc(C(=O)N3CCC(c4ccccc4)CC3)cs2)c1OC was tested, and the inhibition at 20 µM [2, 6] was 25 to 50%.
Compound Cc1ccccc1N(CC(=O)NCC1CCCCCCC1)S(C)(=O)=O has an inhibition at 20 µM [2, 6] of 1 to 25%.
Compound OCC1(Cc2ccccc2)CCCN1c1nc(-c2ccccc2)nc2c1CCC2 (stereo not shown) has an inhibition at 20 µM [2, 6] of 25 to 50%.
For Oc1nc(-c2ccccn2)nc2c(C3CCCC3)csc12, the “% Inhibition at 20 μM, KRas Q61H” value (KRas Q61H mutant; 20 μM compound) was “D (D = 76-100% inhibition)”.
Work on COc1nc(-c2ccccn2)nc2c(C)c(C(=O)N3CCN(c4ccccc4)CC3)sc12 yielded an inhibition at 20 µM ([1]; 20 μM compound) of 51 to 75%, an inhibition at 20 µM [2, 6] of 51 to 75% and an inhibition at 20 µM (KRas Q61H mutant; 20 μM compound) of 51 to 75%.
Compound COc1cnc(CNC(=O)c2csc3nc(-c4ccccn4)nc(N)c23)[nH]c1=O has an inhibition at 20 µM ([1]; 20 μM compound) of 25 to 50% and an inhibition at 20 µM (KRas Q61H mutant; 20 μM compound) of 25 to 50%.
OC[C@H]1O[C@@H](c2csc3c2N=C(c2ccccn2)NC3O)[C@H](O)[C@@H]1O (stereo partly shown) showed an inhibition at 20 µM (KRas G12D mutant protein; 20 μM compound) of 25 to 50%, an inhibition at 20 µM (KRas G12C mutant; 20 μM compound) of 51 to 75% and an inhibition at 20 µM ([1]; 20 μM compound) of 25 to 50%. For the same compound, the inhibition at 20 µM [2, 6] was 25 to 50%, the inhibition at 20 µM (KRas Q61H mutant; 20 μM compound) was 51 to 75% and the inhibition at 20 µM (KRas wild type; 20 μM compound) was 25 to 50%.
Cn1cnc(-c2nc(O)c3c(C4C=CC=CC4)c(-c4ccncc4)sc3n2)c1 (stereo not shown) showed an inhibition at 20 µM ([1]; 20 μM compound) of 1 to 25%, an inhibition at 20 µM [2, 6] of 1 to 25% and an inhibition at 20 µM (KRas Q61H mutant; 20 μM compound) of 1 to 25%.
For Oc1nc(-c2ccccn2)nc(Oc2cccc(C(F)(F)F)c2)c1O, the “% Inhibition at 20 μM, KRas G12C” value (KRas G12C mutant; 20 μM compound) was “B (B = 25-50% inhibition)”.
COCCNc1nc(-c2nccn2C)nc2sc(-c3ccccc3)c(-c3ccccc3)c12 was tested, and the inhibition at 20 µM (KRas G12D mutant protein; 20 μM compound) was 0%.
With Cc1sc2c(O)nc(-c3nccn3C)nc2c1-c1ccccc1Cl the inhibition at 20 µM (KRas G12C mutant; 20 μM compound) was 1 to 25% and the inhibition at 20 µM (KRas wild type; 20 μM compound) was 25 to 50%.
Work on COCCNc1nc(-c2nccn2C)nc2sc(-c3ccccc3)c(-c3cccnc3)c12 yielded an inhibition at 20 µM (KRas G12D mutant protein; 20 μM compound) of 25 to 50%, an inhibition at 20 µM (KRas G12C mutant; 20 μM compound) of 25 to 50% and an inhibition at 20 µM (KRas wild type; 20 μM compound) of 51 to 75%.
For COc1ccccc1OCC(=O)Nc1nnc(-c2ccccn2)[nH]1 [drawing 2004], the inhibition at 30 µM [3] was 0% and the inhibition at 30 µM [4] was 26 to 50%.
For CCC(C)c1csc2c(O)nc(-c3ccccn3)nc12 (stereo not shown) [drawing 2332], the inhibition at 30 µM [3] was 1 to 25% and the inhibition at 30 µM [4] was 26 to 50%.
With COc1ccccc1OCC(=O)Nc1nnc(-c2ccccn2)[nH]1 [drawing 2552] the inhibition at 20 µM ([2]; 20 μM, read-out: KRas G12D Q61H % Inh.) was 51 to 75%.
